The conditions of data set [1]: volume of water per 1 g of (+)-catechin; cited from earlier work.
Data set [2] is described as follows: solubility of double salts in the presence of 2% of benzyl alcohol. It is filed as physicochemical. The following applies: salts formed with L-lysine and an acid. Here is the method: These double salts of (+)-catechin are all hydrosoluble but the solubility varies somewhat as a function of the acid used.
Upon cooling, salts precipitate and 1 to 3% of benzyl alcohol are added, advantageously 2%. The solution is reheated to about 45° C. and allowed to cool again, preferably to below 10° C. The double salt then remains in solution.

The nature of data set [3]: pH of solutions of the salts. The class given is physicochemical.

Structures can show the parent of a compound that is named as a salt. Where two headings read alike, the source gives them in different places. Where only a bound is given, the exact number is not on record here.

For the compound `Oc1cc(O)c2c(c1)O[C@H](c1ccc(O)c(O)c1)[C@@H](O)C2` [(+)-catechin, trans-2-(3,4-dihydroxyphenyl)-3,4-dihydro-2H-1-benzopyran-3,5,7-triol], in data set [1], the “solubility of (+)-catechin in water” value is on record as 1100-1200 ml of water.
In the case of `Oc1cc(O)c2c(c1)O[C@H](c1ccc(O)c(O)c1)[C@@H](O)C2` [Example 2], the solubility entry in data set [2] (listed as salt formed with L-lysine and hydrochloric acid) was “above 15 mg of (+)-catechin per ml”.
Consider `Oc1cc(O)c2c(c1)O[C@H](c1ccc(O)c(O)c1)[C@@H](O)C2` [Example 6], for which, in data set [2] (water, 2% benzyl alcohol, organic solvent or mixture, read-out: solubility), the solubility is above 15 mg/mL. Also, the “pH of an aqueous concentrated solution” value in data set [3] is reported as 6.5.
With `Oc1cc(O)c2c(c1)O[C@H](c1ccc(O)c(O)c1)[C@@H](O)C2` [salt formed with L-lysine and acetic acid], in data set [2], the solubility result is “above 15 mg of (+)-catechin per ml”.
Regarding `Oc1cc(O)c2c(c1)O[C@H](c1ccc(O)c(O)c1)[C@@H](O)C2` [salt formed with L-lysine and citric acid], the solubility in data set [2] is recorded as 9.5 mg of (+)-catechin per ml.
Still for that read-out and setting: in the case of `Oc1cc(O)c2c(c1)O[C@H](c1ccc(O)c(O)c1)[C@@H](O)C2` [salt formed with L-lysine and glucuronic acid] it was “above 15 mg of (+)-catechin per ml”.

The values are drawn from patent US4285964A, “Salts of (+)-catechine, their preparation and use, and compositions containing these salts” (Continental Pharma, priority 1979, dated 1981).
